Measured values reported in patent publication US10105357B2, “Indication of antibiotic drugs for preparation of cancer inhibition pharmaceutical composition” (LAUNX BIOMEDICAL CO., LTD., priority 2014, dated 2018).
Where a name gives a salt, the structure may show the parent alone. Read-outs that look alike come from different tables or passages of the source.

Key:
Type in all cases: cell-based, human
[1] = tested on: MKN-45 (Gastric Adenocarcinoma); assay: Cell viability analysis, gastric cancer MKN-45; conditions: for viability at 10 µM: Homo sapiens, MKN-45, 72 h
[2] = tested on: LoVo (Colorectal Adenocarcinoma); assay: Cell viability analysis, colon cancer LoVo; conditions: for viability at 10 µM: Homo sapiens, LoVo, 72 h, read-out: cell viability (survival rate), LoVo, drug 10 μM, 72 hours, WST-1, OD450 nm
[3] = tested on: AGS (Gastric Adenocarcinoma); assay: Cell viability analysis, gastric cancer AGS; conditions: for viability at 10 µM: Homo sapiens, 72 h
[4] = tested on: HeLa (Cervix Adenocarcinoma); assay: Cell viability analysis, cervical cancer HeLa; conditions: for viability at 10 µM: Homo sapiens, HeLa, 72 h
[5] = tested on: A549 (Lung Adenocarcinoma); assay: Cell viability analysis, lung cancer A549; conditions: for viability at 10 µM: Homo sapiens, A549, 72 h
[6] = tested on: HL-60 (Acute Promyelocytic Leukemia); assay: Cell viability analysis, leukemia HL-60; conditions: for viability at 10 µM: Homo sapiens, HL-60, 72 h
[7] = tested on: HepG2 (Hepatocellular Carcinoma); assay: Cell viability analysis, hepatic cancer HepG2; conditions: for viability at 10 µM: Homo sapiens, HepG2, 72 h
[8] = tested on: A375 (Amelanotic Melanoma); assay: Cell viability analysis, skin cancer A375; conditions: for viability at 10 µM: Homo sapiens, A-375, 72 h
[9] = tested on: HI650 (Lung Adenocarcinoma); assay: Cell viability analysis, lung cancer HI650; conditions: for viability at 10 µM: Homo sapiens, NCI-H1650, 72 h
[10] = tested on: TSGH-8301 (Urinary Bladder Carcinoma); assay: Cell viability analysis, bladder cancer TSGH-8301; conditions: for viability at 10 µM: Homo sapiens, 72 h
[11] = tested on: PC3 (p53−) (Prostate Adenocarcinoma); assay: Cell viability analysis, prostate cancer PC3; conditions: for viability at 10 µM: Homo sapiens, 72 h
[12] = tested on: MCF7 (Mammary Gland, Adenocarcinoma); assay: Cell viability analysis, breast cancer MCF7; conditions: for viability at 10 µM: Homo sapiens, MCF7, 72 h
[13] = drug 10 μM, 72 hours, WST-1, OD450 nm, read-out: cell viability (survival rate), MKN-45
[14] = drug 10 μM, 72 hours, WST-1, OD450 nm, read-out: cell viability (survival rate), AGS
[15] = drug 10 μM, 72 hours, WST-1, OD450 nm, read-out: cell viability (survival rate), HeLa
[16] = drug 10 μM, 72 hours, WST-1, OD450 nm, read-out: cell viability (survival rate), A549
[17] = drug 10 μM, 72 hours, WST-1, OD450 nm, read-out: cell viability (survival rate), HL-60
[18] = drug 10 μM, 72 hours, WST-1, OD450 nm, read-out: cell viability (survival rate), HepG2
[19] = drug 10 μM, 72 hours, WST-1, OD450 nm, read-out: cell viability (survival rate), A375
[20] = drug 10 μM, 72 hours, WST-1, OD450 nm, read-out: cell viability (survival rate), H1650
[21] = drug 10 μM, 72 hours, WST-1, OD450 nm, read-out: cell viability (survival rate), TSGH
[22] = drug 10 μM, 72 hours, WST-1, OD450 nm, read-out: cell viability (survival rate), PC3
[23] = read-out: cell viability (survival rate), MCF7, drug 10 μM, 72 hours, WST-1, OD450 nm
[24] = read-out: cell viability (survival rate), AGS, drug 10 μM, 72 hours, WST-1, OD450 nm
[25] = read-out: cell viability (survival rate), HeLa, drug 10 μM, 72 hours, WST-1, OD450 nm
[26] = read-out: cell viability (survival rate), A549, drug 10 μM, 72 hours, WST-1, OD450 nm
[27] = read-out: cell viability (survival rate), HL-60, drug 10 μM, 72 hours, WST-1, OD450 nm
[28] = read-out: cell viability (survival rate), HepG2, drug 10 μM, 72 hours, WST-1, OD450 nm
[29] = read-out: cell viability (survival rate), A375, drug 10 μM, 72 hours, WST-1, OD450 nm
[30] = read-out: cell viability (survival rate), H1650, drug 10 μM, 72 hours, WST-1, OD450 nm
[31] = read-out: cell viability (survival rate), TSGH, drug 10 μM, 72 hours, WST-1, OD450 nm
[32] = read-out: cell viability (survival rate), PC3, drug 10 μM, 72 hours, WST-1, OD450 nm
[33] = drug 10 μM, 72 hours, WST-1, OD450 nm, read-out: cell viability (survival rate), MCF7
[34] = drug 10 μM, 72 hours, WST-1, OD450 nm

Row | SMILES | viability at 10 µM [1, 13] [%] | viability at 10 µM [2] [%] | viability at 10 µM [3, 14] [%] | viability at 10 µM [4, 15] [%] | viability at 10 µM [5, 16] [%] | viability at 10 µM [6, 17] [%] | viability at 10 µM [7, 18] [%] | viability at 10 µM [8, 19] [%] | viability at 10 µM [9, 20] [%] | viability at 10 µM [10, 21] [%] | viability at 10 µM [11, 22] [%] | viability at 10 µM [12, 23] [%] | viability at 10 µM [3, 24] [%] | viability at 10 µM [4, 25] [%] | viability at 10 µM [5, 26] [%] | viability at 10 µM [6, 27] [%] | viability at 10 µM [7, 28] [%] | viability at 10 µM [8, 29] [%] | viability at 10 µM [9, 30] [%] | viability at 10 µM [10, 31] [%] | other results
1 | Cc1cc(=O)[nH]c(=S)[nH]1 [Methylthiouracil] | 79.9 | 98.9 | 84.8 | 88.3 | 164 | 106 | 106 | 72.1 | 90.2 | 83.6 | 151 |  |  |  |  |  |  |  |  |  | 
2 | Cc1ccccc1C(OCCN(C)C)c1ccccc1 (stereo not shown) [Orphenadrine citrate (Norflex), Orphenadrine citrate] |  | 45.6 |  |  |  |  |  |  |  |  |  | 35.9 | 82.9 | 67.9 | 21.8 | 92.9 | 97.8 | 89.2 | 99.6 | 53.4 | viability at 10 µM ([1]; read-out: cell viability (survival rate), MKN-45, drug 10 μM, 72 hours, WST-1, OD450 nm): 102%; viability at 10 µM [11, 32]: 41.6%
3 | CN(CCOc1ccc(CC2SC(=O)NC2=O)cc1)c1ccccn1 (stereo not shown) [Rosiglitazone maleate] | 73.7 | 93.5 | 113 | 83.3 | 79.1 | 109 | 95.1 | 70.3 | 87.7 | 85.2 | 121 |  |  |  |  |  |  |  |  |  | viability at 10 µM [12, 33]: 114%
4 | Nc1nccs1 [Aminothiazole] |  | 86.4 |  |  |  |  |  |  |  |  |  | 108 | 62.3 | 65.7 | 56.1 | 121 | 90.4 | 78.4 | 68.7 | 86 | viability at 10 µM [11, 32]: 93.8%
5 | NC(=O)c1cnccn1 [Pyrazinamide] | 53.6 | 56.9 | 74.9 | 54.3 | 33.9 | 106 | 88.1 | 58.6 | 79.1 | 88.3 | 100 |  |  |  |  |  |  |  |  |  | viability at 10 µM [12, 33]: 40.9%
6 | CN(C)CCCN1c2ccccc2CCc2ccc(Cl)cc21.Cl [Clomipramine HCl (Anafranil)] |  |  |  |  |  |  |  |  |  |  |  |  |  |  |  |  |  |  |  |  | cell viability (survival rate), MKN-45 [1, 34]: 70.5; cell viability (survival rate), MCF7 [12, 34]: 75.7; cell viability (survival rate), LoVo [2, 34]: 87.1; cell viability (survival rate), AGS [3, 34]: 60.2; cell viability (survival rate), HeLa [4, 34]: 167.6; cell viability (survival rate), A549 [5, 34]: 69.1; cell viability (survival rate), HL-60 [6, 34]: 82.7; cell viability (survival rate), HepG2 [7, 34]: 115.6; cell viability (survival rate), A375 [8, 34]: 88.9; cell viability (survival rate), H1650 [9, 34]: 47.5; cell viability (survival rate), TSGH [10, 34]: 46.2; cell viability (survival rate), PC3 [11, 34]: 75.8
